Measured values taken from patent US20170071944A1, “MODULATORS OF TOLL-LIKE RECEPTORS FOR THE TREATMENT OF HIV” (Gilead Sciences, Inc., priority 2015, published 2017).

Test system: HIV-specific polyfunctional CD8 T cells
Experiment: Induced HIV-specific polyfunctional CD8+ T cells in PBMC cultures from HIV-1 infected subjects on cART
Format: cell-based, human
Conditions: for Median HIV-specific polyfunctional CD8 T cells (% proliferating CD8+ cells double positive for IFN-γ and TNF-α): 5 subjects, vehicle 0.73% (Example 15 group), 0.13% (Example 98 group)

Structure (SMILES): CCCC[C@H](CO)Nc1nc(N)nc2cccnc12 [Example 15]
- Patients in whom increases were seen (100 nM): 3 of 5
- Median HIV-specific polyfunctional CD8 T cells (% proliferating CD8+ cells double positive for IFN-γ and TNF-α) (100 nM with HIV peptide pool): 0.99%
- Patients in whom increases were seen (1000 nM): 4 of 5
- Increase of median HIV-specific polyfunctional CD8 T cells (1000 nM combined with the HIV specific peptide pool, p<0.05): 2.7 fold
- Median HIV-specific polyfunctional CD8 T cells (% proliferating CD8+ cells double positive for IFN-γ and TNF-α) (1000 nM with HIV peptide pool): 2.01%
